The values below are quoted from earlier work in patent US20040048871A1, “Use of high dose intravenous methotrexate, with leucovorin rescue, to treat early multiple sclerosis and other diseases of the central nervous system” (priority 2002, published 2004).

Molecules are shown by their SMILES. Read-outs that look alike come from different tables or passages of the source.

For data set [1] the following is noted: for crossing of the blood brain barrier (BBB): in vivo.
The conditions of data set [2]: in vivo.
The conditions of data set [3]: 2.5 g/m^2 sporadically via IV infusion, with leucovorin rescue.
For data set [4] the following is noted: 8 g/m^2, four hour IV infusion, with leucovorin rescue.
[5] abbreviates: low-dose methotrexate 7.5 mg/week, orally.

As to `O=P1(N(CCCl)CCCl)NCCCO1` (centres unmarked) [cyclophosphamide], the “crossing of the blood brain barrier (BBB)” value (“crossing” below) in data set [1] is on record as “do not cross the blood brain barrier”. The “efficacy against the progression of MS” value in data set [2] is “some efficacy”.
Regarding `Nc1nc2c(c(=O)[nH]1)N(C=O)C(CNc1ccc(C(=O)N[C@@H](CCC(=O)O)C(=O)O)cc1)CN2` (some centres unmarked) [leucovorin], the “crossing” value in data set [1] is on record as “does not penetrate the BBB”.
In the case of `CN(Cc1cnc2nc(N)nc(N)c2n1)c1ccc(C(=O)N[C@@H](CCC(=O)O)C(=O)O)cc1` [methotrexate], in data set [3], the toxicity entry was “no significant toxicity”. In data set [1] (administered orally), the “serum level sufficient to cross the BBB in cytotoxic amounts” value was “not sufficient to cross the BBB in cytotoxic amounts”. Moreover, under setting [5], the “effect on the course of progressive MS” value is “impact the course of progressive MS” and the toxicity entry is reported as “minimal toxicity”. For the setting “oral methotrexate treatments”, the “upper extremity strength in MS patients” value is reported as “mild improvement”. In data set [4], the “results in treating CNS lymphomas” value is “promising results” and the toxicity entry is “low toxicity”.
Consider `O=C1c2c(O)ccc(O)c2C(=O)c2c(NCCNCCO)ccc(NCCNCCO)c21` [mitoxantrone], for which the “crossing” value in data set [1] is “do not cross the blood brain barrier”.
